Data published in US10316049B2, “Tank-binding kinase inhibitor compounds” (Gilead Sciences, Inc., priority 2015, dated 2019).
pIC50: −log10 of the molar value.

How the values were obtained:
[1] = target: T1, TBK1 (Homo sapiens, UniProt Q9UHD2); test: TR-FRET enzymatic activity assay, TBK1; type: biochemical; note: full length recombinant TBK1 at 2.5 nM
T1 construct: TBK1 and IKKε were expressed and purified as full length recombinant proteins; made in house
T1 sequence (Q9UHD2 1-729): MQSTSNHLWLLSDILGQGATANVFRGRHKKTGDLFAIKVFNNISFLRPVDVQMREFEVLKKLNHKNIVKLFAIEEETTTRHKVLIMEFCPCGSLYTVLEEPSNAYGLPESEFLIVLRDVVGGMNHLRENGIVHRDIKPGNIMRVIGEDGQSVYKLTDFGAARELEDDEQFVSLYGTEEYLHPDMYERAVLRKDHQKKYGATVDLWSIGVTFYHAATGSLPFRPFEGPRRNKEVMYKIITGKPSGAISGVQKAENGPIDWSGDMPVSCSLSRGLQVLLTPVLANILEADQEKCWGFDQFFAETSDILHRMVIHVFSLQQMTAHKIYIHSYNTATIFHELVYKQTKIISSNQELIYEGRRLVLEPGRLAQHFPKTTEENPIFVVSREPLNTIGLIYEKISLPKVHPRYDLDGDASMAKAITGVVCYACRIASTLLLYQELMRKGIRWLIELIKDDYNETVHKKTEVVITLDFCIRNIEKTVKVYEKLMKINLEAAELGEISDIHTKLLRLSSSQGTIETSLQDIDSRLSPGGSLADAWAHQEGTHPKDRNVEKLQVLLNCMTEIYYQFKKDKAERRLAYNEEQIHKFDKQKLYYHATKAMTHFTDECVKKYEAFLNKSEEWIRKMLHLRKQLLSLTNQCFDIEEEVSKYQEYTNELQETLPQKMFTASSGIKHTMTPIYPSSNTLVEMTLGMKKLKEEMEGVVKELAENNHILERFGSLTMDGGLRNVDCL
Summary of the method: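 Full-length recombinant enzymes phosphorylated a biotinylated Ser/Thr peptide for 240 min at 25 °C, stopped with EDTA. Phosphopeptide detected by TR-FRET (streptavidin XL665, Eu-cryptate anti-phospho antibody). IC50 from four-parameter fits normalized to 1 μM staurosporine and DMSO controls, as geometric means of at least four determinations.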

[2] = target: T2, IKKε (Homo sapiens, UniProt Q14164); test: TR-FRET enzymatic activity assay, IKKε; type: biochemical; details: read-out: IKKϵ IC50; note: full length recombinant IKKε at 0.3 nM
T2 construct: TBK1 and IKKε were expressed and purified as full length recombinant proteins; made in house
T2 sequence (Q14164 1-716): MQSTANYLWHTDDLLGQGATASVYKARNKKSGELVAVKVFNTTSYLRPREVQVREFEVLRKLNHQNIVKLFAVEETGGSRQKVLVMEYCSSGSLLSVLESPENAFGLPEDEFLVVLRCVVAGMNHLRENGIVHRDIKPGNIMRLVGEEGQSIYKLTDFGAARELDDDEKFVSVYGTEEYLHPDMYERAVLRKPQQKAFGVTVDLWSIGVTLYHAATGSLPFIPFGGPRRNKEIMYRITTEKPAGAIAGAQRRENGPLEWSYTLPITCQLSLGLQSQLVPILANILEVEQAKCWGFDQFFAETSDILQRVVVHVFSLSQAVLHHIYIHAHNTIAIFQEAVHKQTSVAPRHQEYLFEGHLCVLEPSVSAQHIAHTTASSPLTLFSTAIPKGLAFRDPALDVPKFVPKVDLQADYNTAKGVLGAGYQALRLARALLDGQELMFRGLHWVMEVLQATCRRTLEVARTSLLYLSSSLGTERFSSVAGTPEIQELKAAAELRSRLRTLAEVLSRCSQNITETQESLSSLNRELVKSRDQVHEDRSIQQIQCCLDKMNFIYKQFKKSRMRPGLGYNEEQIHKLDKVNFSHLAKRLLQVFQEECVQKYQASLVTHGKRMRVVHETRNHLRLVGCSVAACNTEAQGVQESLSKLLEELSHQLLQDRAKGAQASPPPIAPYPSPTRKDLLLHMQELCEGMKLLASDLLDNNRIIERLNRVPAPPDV
Summary of the method: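 Full-length recombinant IKKε phosphorylated a biotinylated Ser/Thr peptide for 240 min at 25 °C; EDTA stop. Phospho-peptide detected by TR-FRET with streptavidin-XL665 (125 nM) and Eu-cryptate anti-phospho antibody. Normalised to staurosporine and DMSO controls; IC50 from four-parameter fit, geometric mean of ≥4 runs.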

Row | pIC50 [1] | pIC50 [2] | Structure (SMILES)
1 | 8.09 | < 6.00 | COc1ccc([C@@H]2C[C@H]2C(=O)Nc2cc(-c3ccc(O[C@H]4CCN(C(=O)CO)CC4(F)F)c(C#N)c3)ncn2)cn1 [Example 113, (1R,2R)—N-(6-(3-cyano-4-(((S)-3,3-difluoro-1-(2-hydroxyacetyl)piperidin-4-yl)oxy)phenyl)pyrimidin-4-yl)-2-(6-methoxypyridin-3-yl)cyclopropane-1-carboxamide]
2 | 7.12 | 6.70 | N#Cc1cc(-c2ccnc(NC(=O)[C@@H]3C[C@H]3c3ccncc3)c2)ccc1OC1CCOCC1 (relative stereo) [Example 151, Trans-N-(4-(3-cyano-4-((tetrahydro-2H-pyran-4-yl)oxy)phenyl)pyridin-2-yl)-2-(pyridin-4-yl)cyclopropane-1-carboxamide]
3 | 7.32 | 7.27 | COC(=O)[C@@H]1C[C@H]1C(=O)Nc1cc(-c2ccc(O[C@H]3CCN(C(=O)CO)C[C@H]3F)c(C#N)c2)ccn1 (relative stereo) [Example 83, Methyl (1,2-trans)-2-((4-(3-cyano-4-(((3R,4S)-3-fluoro-1-(2-hydroxyacetyl)piperidin-4-yl)oxy)phenyl)pyridin-2-yl)carbamoyl)cyclopropane-1-carboxylate]
4 | < 6.00 | < 6.00 | N#Cc1cc(-c2ccnc(NC(=O)C3(CF)CC3)c2)ccc1OC1CCOCC1 [Example 49, N-(4-(3-cyano-4-((tetrahydro-2H-pyran-4-yl)oxy)phenyl)pyridin-2-yl)-1-(fluoromethyl)cyclopropane-1-carboxamide]
5 | 6.35 | 6.37 | N#Cc1cc(-c2ccnc(NC(=O)[C@@H]3C[C@H]3C(=O)N3CC(O)C3)c2)ccc1OC1CCOCC1 (relative stereo) [Example 45, (1,2-trans)-N-(4-(3-cyano-4-((tetrahydro-2H-pyran-4-yl)oxy)phenyl)pyridin-2-yl)-2-(3-hydroxyazetidine-1-carbonyl)cyclopropane-1-carboxamide]
6 | 7.02 | 7.14 | CC(O)[C@@H]1C[C@H]1C(=O)Nc1cc(-c2ccc(OC3CCOCC3)c(C#N)c2)ccn1 (stereo partly drawn) [Example 39, (1,2-trans)-N-(4-(3-cyano-4-((tetrahydro-2H-pyran-4-yl)oxy)phenyl)pyridin-2-yl)-2-(-1-hydroxyethyl)cyclopropane-1-carboxamide]
7 | 6.31 | < 6.00 | CCOC(=O)[C@@H]1C[C@H]1C(=O)Nc1cc(-c2ccc(OC3CCOCC3)c(C#N)c2)ncn1 (relative stereo) [Example 35, (trans)-ethyl 2-((6-(3-cyano-4-((tetrahydro-2H-pyran-4-yl)oxy)phenyl)pyrimidin-4-yl)carbamoyl)cyclopropanecarboxylate]
8 | 8.25 | 8.15 | N#Cc1cc(-c2cc(NC(=O)C3CC3)ncn2)ccc1O[C@H]1CCN(C(=O)c2nnc[nH]2)CC1(F)F [Example 32, (S)—N-(6-(3-cyano-4-((3,3-difluoro-1-(4H-1,2,4-triazole-3-carbonyl)piperidin-4-yl)oxy)phenyl)pyrimidin-4-yl)cyclopropanecarboxamide]
9 | 8.32 | 8.02 | N#Cc1cc(-c2cc(NC(=O)C3CC3)ncn2)ccc1O[C@H]1CCN(C(=O)CO)CC1(F)F [Example 20, (S)—N-(6-(3-cyano-4-((3,3-difluoro-1-(2-hydroxyacetyl)piperidin-4-yl)oxy)phenyl)pyrimidin-4-yl)cyclopropanecarboxamide]
10 | 7.36 | 6.57 | CCC[C@H]1C[C@@H]1C(=O)Nc1cc(-c2ccc(OC3CCOCC3)c(C#N)c2)ccn1 (relative stereo) [Example 91, (1,2-trans)-N-(4-(3-cyano-4-((tetrahydro-2H-pyran-4-yl)oxy)phenyl)pyridin-2-yl)-2-propylcyclopropane-1-carboxamide]
11 | 8.24 | 8.22 | N#Cc1cc(-c2ccnc(NC(=O)[C@H]3C[C@@H]3c3cccnc3)c2)ccc1O[C@H]1CCN(C(=O)CO)CC1(F)F [Example 142, (1S,2S)—N-(4-(3-cyano-4-(((S)-3,3-difluoro-1-(2-hydroxyacetyl)piperidin-4-yl)oxy)phenyl)pyridin-2-yl)-2-(pyridin-3-yl)cyclopropane-1-carboxamide]
12 | 6.40 | 6.53 | N#Cc1cc(-c2ccnc(NC(=O)C3(F)CC3)c2)ccc1O[C@H]1CCN(C(=O)CO)C[C@H]1F [Example 78, N-(4-(3-Cyano-4-(((3R,4S)-3-fluoro-1-(2-hydroxyacetyl)piperidin-4-yl)oxy)phenyl)pyridin-2-yl)-1-fluorocyclopropane-1-carboxamide]
13 | 7.18 | 6.80 | N#Cc1cc(-c2cc(NC(=O)C3CC3)ncn2)ccc1OC1CCN(C(=O)CO)CC1 [Example 23, N-(6-(3-cyano-4-((1-(2-hydroxyacetyl)piperidin-4-yl)oxy)phenyl)pyrimidin-4-yl)cyclopropanecarboxamide]
14 | 7.47 | 7.06 | COCC(=O)N1CC[C@H](Oc2ccc(-c3ccnc(NC(=O)[C@H]4C[C@@H]4F)c3)cc2C#N)[C@H](F)C1 [Example 68, (1,2-trans)-N-(4-(3-Cyano-4-(((3R,4S)-3-fluoro-1-(2-methoxyacetyl)piperidin-4-yl)oxy)phenyl)pyridin-2-yl)-2-fluorocyclopropane-1-carboxamide]
15 | 7.31 | 6.80 | Cc1ncc(C(=O)N2CC[C@H](Oc3ccc(-c4cc(NC(=O)C5CC5)ncn4)cc3C#N)[C@H](F)C2)o1 [Example 107, N-(6-(3-cyano-4-(((3R,4S)-3-fluoro-1-(2-methyloxazole-5-carbonyl)piperidin-4-yl)oxy)phenyl)pyrimidin-4-yl)cyclopropanecarboxamide]
16 | 7.53 | 6.57 | Cc1cc([C@@H]2C[C@H]2C(=O)Nc2cc(-c3ccc(OC4CCOCC4)c(C#N)c3)ccn2)on1 (relative stereo) [Example 47, (1,2-trans)-N-(4-(3-cyano-4-((tetrahydro-2H-pyran-4-yl)oxy)phenyl)pyridin-2-yl)-2-(3-methylisoxazol-5-yl)cyclopropane-1-carboxamide]
17 | 8.15 | 7.28 | N#Cc1cc(-c2cc(NC(=O)C3CC3)ncn2)ccc1O[C@H]1CCN(C(=O)[C@@H]2COC(=O)N2)CC1(F)F [Example 155, N-(6-(3-cyano-4-(((S)-3,3-difluoro-1-((S)-2-oxooxazolidine-4-carbonyl)piperidin-4-yl)oxy)phenyl)pyrimidin-4-yl)cyclopropanecarboxamide]
18 | 7.77 | 7.58 | N#Cc1cc(-c2ccnc(NC(=O)C3C[C@@H]3F)c2)ccc1O[C@H]1CCN(C(=O)CO)C[C@H]1F (stereo partly drawn) [Example 57, (1,2-trans)-N-(4-(3-cyano-4-(((3R,4S)-3-fluoro-1-(2-hydroxyacetyl)piperidin-4-yl)oxy)phenyl)pyridin-2-yl)-2-fluorocyclopropane-1-carboxamide]
19 | < 6.00 | < 6.00 | CC(=O)OC1(C(=O)Nc2cc(-c3ccc(OC4CCOCC4)c(C#N)c3)ccn2)CC1 [Example 37, 1-((4-(3-cyano-4-((tetrahydro-2H-pyran-4-yl)oxy)phenyl)pyridin-2-yl)carbamoyl)cyclopropyl acetate]
20 | 6.57 | 6.29 | N#Cc1cc(-c2ccnc(NC(=O)C3CC34CC4)c2)ccc1OC1CCOCC1 (stereo not shown) [Example 48, N-(4-(3-cyano-4-((tetrahydro-2H-pyran-4-yl)oxy)phenyl)pyridin-2-yl)spiro[2.2]pentane-1-carboxamide]
